Data from US20240254103A9, “NOVEL PYRIMIDINE DERIVATIVE, AND COMPOSITION FOR PREVENTING OR TREATING NEURODEGENERATIVE DISEASES AND CANCER, COMPRISING SAME” (WHAN IN PHARMACEUTICAL CO., LTD., priority 2020, published 2024).

Molecular target: T1, wild-type LRRK2 (Homo sapiens, UniProt Q5S007)
T1 construct: DNA tag for qPCR detection (not a peptide; the protein part that carries it is not described); made in house; host or cells: HEK 293 cells (the same paragraph also describes T7 phage grown in E. coli BL21)
T1 sequence (Q5S007 970-2527): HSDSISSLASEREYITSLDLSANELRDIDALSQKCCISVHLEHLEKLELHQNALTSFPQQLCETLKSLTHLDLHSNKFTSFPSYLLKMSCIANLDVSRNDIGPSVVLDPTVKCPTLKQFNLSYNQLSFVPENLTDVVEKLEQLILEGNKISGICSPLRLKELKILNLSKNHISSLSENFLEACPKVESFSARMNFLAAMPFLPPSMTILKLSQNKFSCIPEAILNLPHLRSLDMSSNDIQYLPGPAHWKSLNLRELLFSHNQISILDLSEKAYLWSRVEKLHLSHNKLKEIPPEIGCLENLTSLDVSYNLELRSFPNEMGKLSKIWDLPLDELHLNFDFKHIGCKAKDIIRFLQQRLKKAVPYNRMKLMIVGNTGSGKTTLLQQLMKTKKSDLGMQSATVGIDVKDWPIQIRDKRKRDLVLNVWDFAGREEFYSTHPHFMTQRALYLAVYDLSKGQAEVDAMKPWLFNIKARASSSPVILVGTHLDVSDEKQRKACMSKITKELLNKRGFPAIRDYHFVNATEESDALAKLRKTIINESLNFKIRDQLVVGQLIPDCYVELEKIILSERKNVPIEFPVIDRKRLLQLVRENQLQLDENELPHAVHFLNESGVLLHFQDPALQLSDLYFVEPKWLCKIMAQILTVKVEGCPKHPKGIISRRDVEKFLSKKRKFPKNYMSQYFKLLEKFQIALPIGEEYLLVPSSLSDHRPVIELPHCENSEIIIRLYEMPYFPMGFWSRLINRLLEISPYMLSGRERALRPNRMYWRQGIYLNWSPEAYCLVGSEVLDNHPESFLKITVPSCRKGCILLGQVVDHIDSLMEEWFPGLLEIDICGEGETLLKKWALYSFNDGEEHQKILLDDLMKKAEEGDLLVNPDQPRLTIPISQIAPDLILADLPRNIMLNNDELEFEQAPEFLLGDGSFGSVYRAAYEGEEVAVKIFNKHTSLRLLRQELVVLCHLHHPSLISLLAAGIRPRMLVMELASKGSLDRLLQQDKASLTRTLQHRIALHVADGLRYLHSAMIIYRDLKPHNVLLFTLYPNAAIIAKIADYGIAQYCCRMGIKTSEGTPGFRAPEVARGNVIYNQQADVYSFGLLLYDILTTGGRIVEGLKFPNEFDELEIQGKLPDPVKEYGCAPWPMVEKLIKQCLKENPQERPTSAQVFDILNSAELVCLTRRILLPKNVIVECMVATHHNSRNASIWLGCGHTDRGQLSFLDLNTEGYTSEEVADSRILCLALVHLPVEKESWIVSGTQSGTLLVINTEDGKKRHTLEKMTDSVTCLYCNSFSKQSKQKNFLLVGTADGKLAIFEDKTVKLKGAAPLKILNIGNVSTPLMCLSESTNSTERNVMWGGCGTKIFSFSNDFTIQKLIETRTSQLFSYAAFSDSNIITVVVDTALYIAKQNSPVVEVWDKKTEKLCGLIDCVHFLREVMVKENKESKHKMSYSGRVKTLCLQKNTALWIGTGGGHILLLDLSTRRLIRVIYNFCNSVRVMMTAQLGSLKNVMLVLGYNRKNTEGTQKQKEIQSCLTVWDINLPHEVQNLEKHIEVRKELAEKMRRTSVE
Assay: Inhibitory activity against LRRK2: competition binding to ligand-affinity beads, DNA-tagged kinase quantitated by qPCR
Details: % of ctrl; for remaining binding at 0.01 µM: 10 nM compound, read-out: LRRK2(WT) Remaining kinase activity(%) at 10 nM; for remaining binding at 0.05 µM: 50 nM compound, read-out: LRRK2(WT) Remaining kinase activity(%) at 50 nM
Experimental: Representative compounds synthesized in Example 1 were assayed for inhibitory activity against wild-type LRRK2 and mutant LRRK2 (G2019S), and the results are summarized in Tables 2 and 3. In brief, a T7 phase strain carrying the wild-type kinase consisting of amino acid residues from H970 to E2527 of human-derived LRRK2 (Accession no. NP_940980.3) or a T7 phase strain carrying the G2019S mutation kinase was infected into E. coli strain BL21 which was then grown until log phase. After infection with T7 phases (multiplicity of infection=0.4), the cells were cultured at 32° C. for 90-150 minutes while shaking. Then, E. coli lysates were centrifuged (6,000×g) and the supernatant was filtered through a 0.2-μm filter. The kinases were produced in HEK 293 cells. In this regard, DNA was tagged to obtain DNA-tagged kinases for qPCR detection. For use in analyzing the kinases, affinity resins were prepared by treating streptavidin-coated magnetic beads with biotinylated small molecule ligands at room temperature for 30 minutes. Then, the liganded beads were blocked with an excess of biotin and washed with a blocking buffer (SeaBlock (Pierce), 1% BSA, 0.05% Tween 20, 1 mM DTT) to remove unbound ligands and thus to reduce the binding of non-specific phages. […] After one hour of incubation, the affinity beads were washed with a wash buffer (1×PBS, 0.05% Tween 20), resuspended in an elution buffer (1×PBS, 0.05% Tween 20, 0.5 μM non-biotinylated affinity ligand), and incubated at room temperature for 30 minutes while shaking. Afterwards, concentrations of wild-type LRRK2 and mutant LRRK2 (G2019S) in the eluted samples were quantitated by qPCR. Activity values are expressed as percentages relative to the control (% of ctrl). The compounds used in the activity assay were prepared into 40× stocks in 100% DMSO. The stocks were directly diluted during analysis procedures.
Table 2 includes inhibitory activities of the representative compounds of the present disclosure at 100 nM against wild-type LRRK2 and mutant LRRK2 (G2019S) while Table 3 includes inhibitory activities of the representative compounds at 10 nM and 50 nM against wild-type LRRK2. (+++ less than 10%; ++ less than 30%; + less than 50%; −50% or higher)

Row | SMILES | remaining binding at 0.01 µM | remaining binding at 0.05 µM
1 | COc1cc(C(=O)NC2CCN(C)CC2)ccc1Nc1ncc(Cl)c(-c2cnn(C(C)C)c2)n1 [Compound 60, 4-((5-chloro-4-(1-isopropyl-1H-pyrazol-4-yl)pyrimidin-2-yl)amino)-3-methoxy-N-(1-methylpiperidin-4-yl)benzamide] | < 50% | < 10%
2 | COc1cc(C(=O)N2CCN(C)CC2)ccc1Nc1ncc(Cl)c(-c2cnn(C)c2)n1 [Compound 61, (4-((5-chloro-4-(1-methyl-1H-pyrazol-4-yl)pyrimidin-2-yl)amino)-3-methoxyphenyl)(4-methylpiperazin-1-yl)methanone] | < 50% | < 30%
3 | COc1cc(C(=O)N2CCN(C)CC2)ccc1Nc1ncc(Cl)c(-c2cnn(C(C)C)c2)n1 [Compound 62, (4-((5-chloro-4-(1-isopropyl-1H-pyrazol-4-yl)pyrimidin-2-yl)amino)-3-methoxyphenyl)(4-methylpiperazin-1-yl)methanone] | < 30% | < 10%
4 | COc1cc(C(=O)N2CCN(C(C)C)CC2)ccc1Nc1ncc(Cl)c(-c2cnn(C(C)C)c2)n1 [Compound 64, (4-((5-chloro-4-(1-isopropyl-1H-pyrazol-4-yl)pyrimidin-2-yl)amino)-3-methoxyphenyl)(4-isopropylpiperazin-1-yl)methanone] | < 30% | < 10%
5 | COc1cc(C(=O)N2CCC(C(C)(C)O)CC2)ccc1Nc1ncc(Cl)c(-c2cnn(C(C)C)c2)n1 [Compound 70, (4-((5-chloro-4-(1-isopropyl-1H-pyrazol-4-yl)pyrimidin-2-yl)amino)-3-methoxyphenyl)(4-(2-hydroxypropan-2-yl)piperidin-1-yl)methanone] | < 50% | < 30%
6 | COc1cc(C(=O)N2CCC3(CC2)COC3)ccc1Nc1ncc(Cl)c(-c2cnn(C(C)C)c2)n1 [Compound 71, (4-((5-chloro-4-(1-isopropyl-1H-pyrazol-4-yl)pyrimidin-2-yl)amino)-3-methoxyphenyl)(2-oxa-7-azaspiro[3.5]nonan-7-yl)methanone] | < 50% | < 30%
7 | COc1cc(C(=O)N2CC(N3CCOCC3)C2)ccc1Nc1ncc(Cl)c(-c2cnn(C(C)C)c2)n1 [Compound 73, (4-((5-chloro-4-(1-isopropyl-1H-pyrazol-4-yl)pyrimidin-2-yl)amino)-3-methoxyphenyl)(3-morpholinoazetidin-1-yl)methanone] | < 50% | < 30%
8 | COc1cc(C(=S)N2CCOCC2)ccc1Nc1ncc(Cl)c(-c2cnn(C(C)C)c2)n1 [Compound 74, (4-((5-chloro-4-(1-isopropyl-1H-pyrazol-4-yl)pyrimidin-2-yl)amino)-3-methoxyphenyl)(morpholino)methanethione] | < 50% | < 10%
9 | COc1cc(C(=O)N2CCC(OC)CC2)ccc1Nc1ncc(Cl)c(-c2cnn(C(C)C)c2)n1 [Compound 76, (4-((5-chloro-4-(1-isopropyl-1H-pyrazol-4-yl)pyrimidin-2-yl)amino)-3-methoxyphenyl)(4-methoxypiperidin-1-yl)methanone] | < 50% | < 30%
10 | COc1cc(C(=O)N2CCC3(CCOCC3)CC2)ccc1Nc1ncc(Cl)c(-c2cnn(C(C)C)c2)n1 [Compound 77, (4-((5-chloro-4-(1-isopropyl-1H-pyrazol-4-yl)pyrimidin-2-yl)amino)-3-methoxyphenyl)(3-oxa-9-azaspiro[5.5]undecan-9-yl)methanone] | < 50% | < 30%
11 | COc1cc(C(=O)N2CCN(C(C)=O)CC2)ccc1Nc1ncc(Cl)c(-c2cnn(C(C)C)c2)n1 [Compound 78, 1-(4-(4-((5-chloro-4-(1-isopropyl-1H-pyrazol-4-yl)pyrimidin-2-yl)amino)-3-methoxybenzoyl)piperazin-1-yl)ethan-1-one] | < 50% | < 10%
12 | COc1cc(C(=O)N2CCC(S(C)(=O)=O)CC2)ccc1Nc1ncc(Cl)c(-c2cnn(C(C)C)c2)n1 [Compound 79, (4-((5-chloro-4-(1-isopropyl-1H-pyrazol-4-yl)pyrimidin-2-yl)amino)-3-methoxyphenyl)(4-(methylsulfonyl)piperidin-1-yl)methanone] | < 50% | < 10%
13 | COc1cc(C(=O)NC2CCOCC2)ccc1Nc1ncc(Cl)c(-c2cnn(C(C)C)c2)n1 [Compound 80, 4-((5-chloro-4-(1-isopropyl-1H-pyrazol-4-yl)pyrimidin-2-yl)amino)-3-methoxy-N-(tetrahydro-2H-pyran-4-yl)benzamide] | < 50% | < 30%
14 | COc1cc(C(=O)NC2CC2)ccc1Nc1ncc(Cl)c(-c2cnn(C(C)C)c2)n1 [Compound 82, 4-((5-chloro-4-(1-isopropyl-1H-pyrazol-4-yl)pyrimidin-2-yl)amino)-N-cyclopropyl-3-methoxybenzamide] | < 50% | < 30%
15 | COc1cc(C(=O)N2CCS(=O)(=O)CC2)ccc1Nc1ncc(Cl)c(-c2cnn(C(C)C)c2)n1 [Compound 84, (4-((5-chloro-4-(1-isopropyl-1H-pyrazol-4-yl)pyrimidin-2-yl)amino)-3-methoxyphenyl)(1,1-dioxidothiomorpholino)methanone] | < 50% | < 30%
16 | COc1cc(C(=O)N2CCN(C)CC2)ccc1Nc1ncc(Cl)c(-c2cnn(C(C)(C)C)c2)n1 [Compound 85, (4-((4-(1-(tert-butyl)-1H-pyrazol-4-yl)-5-chloropyrimidin-2-yl)amino)-3-methoxyphenyl)(4-methylpiperazin-1-yl)methanone] | < 50% | < 30%
17 | COc1cc(C(=O)N2CCN3CCCC3C2)ccc1Nc1ncc(Cl)c(-c2cnn(C(C)C)c2)n1 (stereo not shown) [Compound 87, (4-((5-chloro-4-(1-isopropyl-1H-pyrazol-4-yl)pyrimidin-2-yl)amino)-3-methoxyphenyl)(hexahydropyrrolo[1,2-a]pyrazin-2(1H)-yl)methanone] | < 50% | < 30%
18 | COc1cc(C(=O)N2CCN(C(C)C)CC2)ccc1Nc1ncc(Cl)c(-c2cnn(C(C)(C)C)c2)n1 [Compound 88, (4-((4-(1-(tert-butyl)-1H-pyrazol-4-yl)-5-chloropyrimidin-2-yl)amino)-3-methoxyphenyl)(4-isopropylpiperazin-1-yl)methanone] | < 50% | < 10%
19 | COc1cc(C(=O)N2C[C@H]3CC[C@@H](C2)O3)ccc1Nc1ncc(Cl)c(-c2cnn(C(C)C)c2)n1 [Compound 89, ((1R,5S)-8-oxa-3-azabicyclo[3.2.1]octan-3-yl)(4-((5-chloro-4-(1-isopropyl-1H-pyrazol-4-yl)pyrimidin-2-yl)amino)-3-methoxyphenyl)methanone] | ≥ 50% | < 30%
20 | COc1cc(C(=O)N2CC3(COC3)C2)ccc1Nc1ncc(Cl)c(-c2cnn(C(C)C)c2)n1 [Compound 90, (4-((5-chloro-4-(1-isopropyl-1H-pyrazol-4-yl)pyrimidin-2-yl)amino)-3-methoxyphenyl)(2-oxa-6-azaspiro[3.3]heptan-6-yl)methanone] | ≥ 50% | < 30%
21 | COc1cc(C(=O)NC2CCC(O)CC2)ccc1Nc1ncc(Cl)c(-c2cnn(C(C)C)c2)n1 (stereo not shown) [Compound 91, 4-((5-chloro-4-(1-isopropyl-1H-pyrazol-4-yl)pyrimidin-2-yl)amino)-N-((1r,4r)-4-hydroxycyclohexyl)-3-methoxybenzamide] | ≥ 50% | < 30%
22 | COc1cc(C(=O)NC2CCC(N(C)C)CC2)ccc1Nc1ncc(Cl)c(-c2cnn(C(C)C)c2)n1 (stereo not shown) [Compound 93, 4-((5-chloro-4-(1-isopropyl-1H-pyrazol-4-yl)pyrimidin-2-yl)amino)-N-(4-(dimethylamino)cyclohexyl)-3-methoxybenzamide] | < 50% | < 10%
23 | COc1cc(C(=O)N2CCC(N(C)C)CC2)ccc1Nc1ncc(Cl)c(-c2cnn(C(C)C)c2)n1 [Compound 94, (4-((5-chloro-4-(1-isopropyl-1H-pyrazol-4-yl)pyrimidin-2-yl)amino)-3-methoxyphenyl)(4-(dimethylamino)piperidin-1-yl)methanone] | < 30% | < 10%
